Experimental data from PMC7594867 (Journal of Enzyme Inhibition and Medicinal Chemistry, 2020).
Like-named read-outs stand apart in the source and are kept apart here.

Key:
A2780 = assay: MTT cytotoxicity assay, A2780; format: cell-based; settings: for IC50: Homo sapiens, A2780, 72 h, read-out: IC50 ± SD, A2780; for Selectivity index, A2780: IC50 MRC-5 / IC50 A2780
HT29 = assay: MTT cytotoxicity assay, HT29; format: cell-based; settings: for IC50: Homo sapiens, HT-29, 72 h, read-out: IC50 ± SD, HT29; for Selectivity index, HT29: IC50 MRC-5 / IC50 HT29
[1] = tested on: normal human foetal lung fibroblast (MRC-5); assay: MTT cytotoxicity assay, normal MRC-5 cells; format: cell-based; settings: MRC5, 72 h, read-out: IC50 (µM ± SD) MRC-5
MCF-7 = assay: MTT cytotoxicity assay, MCF-7; format: cell-based; settings: for IC50: Homo sapiens, MCF7, 72 h, read-out: IC50 ± SD, MCF-7; for Selectivity index, MCF-7: IC50 MRC-5 / IC50 MCF-7
[2] = tested on: MCF-7, A2780, and HT29 cell lines; assay: MTT cytotoxicity assay, three cancer cell lines taken together; format: cell-based
MCF-7 cells [3] = assay: Annexin V-FITC/PI staining apoptosis assay; format: cell-based; settings: MCF-7, 24 h, 1 µM; control 0%
CDK-2 = CDK-2 (Homo sapiens, UniProt P24941); assay: CDK-2 inhibition, ADP-Glo kinase assay; format: biochemical
MCF-7 cells [4] = assay: Cell cycle analysis; format: cell-based; settings: for effect on cell cycle: MCF-7, 24 h, 1, 5, 10 µM; for number of cells in the G1 cell-cycle phase: MCF-7, 24 h, highest increase, concentration not given
[5] = 72 h, read-out: IC50, range over the three cancer cell lines

Cc1ccc(NC(=O)c2c(NC(=S)Nc3cccc4ccccc34)c(C#N)c3n2CCC3)cc1 [Compound 20b, 7-Cyano-6-(3-(naphthalen-1-yl)thioureido)-N-(p-tolyl)-2,3-dihydro-1H-pyrrolizine-5-carboxamide]
IC50 (A2780): 2040 ± 950 nM
Selectivity index, A2780 (A2780): 0.98
IC50 (HT29): 3830 ± 580 nM
Selectivity index, HT29 (HT29): 0.52
IC50 [1]: 2 ± 0.75 µM
IC50 (MCF-7): 4970 ± 420 nM
Selectivity index, MCF-7 (MCF-7): 0.40
IC50 ([2]; read-out: Average IC50): 3610 nM

Cc1ccc(NC(=O)c2c(NC(=O)Nc3cccc4ccccc34)c(C#N)c3n2CCC3)cc1 [Compound 19b, 7-Cyano-6-(3-(naphthalen-1-yl)ureido)-N-(p-tolyl)-2,3-dihydro-1H-pyrrolizine-5-carboxamide]
IC50 (A2780): 5390 ± 1130 nM
Selectivity index, A2780 (A2780): 0.29
IC50 (HT29): 680 ± 140 nM
Selectivity index, HT29 (HT29): 2.26
IC50 [1]: 1.54 ± 0.2 µM
IC50 (MCF-7): 440 ± 90 nM
Selectivity index, MCF-7 (MCF-7): 3.50
IC50 ([2]; read-out: Average IC50): 2170 nM

CCCCCCNC(=O)Nc1c(C#N)c2n(c1C(=O)Nc1ccccc1)CCC2 [Compound 16a, 7-Cyano-6-(3-hexylureido)-N-phenyl-2,3-dihydro-1H-pyrrolizine-5-carboxamide]
IC50 (A2780): 350 ± 180 nM
Selectivity index, A2780 (A2780): 33.89
IC50 (HT29): 850 ± 70 nM
Selectivity index, HT29 (HT29): 13.95
IC50 [1]: 11.9 ± 0.87 µM
IC50 (MCF-7): 590 ± 10 nM
Selectivity index, MCF-7 (MCF-7): 20.10
IC50 [2, 5]: 350 to 850 nM
Selectivity index, range over the three cell lines ([2]; IC50 MRC-5 / IC50 cancer cell line): 13.95–33.89
IC50 ([2]; read-out: Average IC50): 600 nM

N#Cc1c(NC(=O)Nc2ccc(F)cc2)c(C(=O)Nc2ccccc2)n2c1CCC2 [Compound 18a, 7-Cyano-6-(3-(4-fluorophenyl)ureido)-N-phenyl-2,3-dihydro-1H-pyrrolizine-5-carboxamide]
IC50 (A2780): 10600 ± 2830 nM
Selectivity index, A2780 (A2780): 1.01
IC50 (HT29): 9130 ± 850 nM
Selectivity index, HT29 (HT29): 1.17
IC50 [1]: 10.7 ± 0.61 µM
IC50 (MCF-7): 10760 ± 70 nM
Selectivity index, MCF-7 (MCF-7): 0.99
IC50 ([2]; read-out: Average IC50): 10200 nM

CCCCCCNC(=O)Nc1c(C#N)c2n(c1C(=O)Nc1ccc(Cl)cc1)CCC2 [Compound 16c, N-(4-Chlorophenyl)-7-cyano-6-(3-hexylureido)-2,3-dihydro-1H-pyrrolizine-5-carboxamide]
IC50 (A2780): 530 ± 100 nM
Selectivity index, A2780 (A2780): 1.42
IC50 (HT29): 3100 ± 100 nM
Selectivity index, HT29 (HT29): 0.24
IC50 [1]: 0.75 ± 0.14 µM
IC50 (MCF-7): 34100 ± 4610 nM
Selectivity index, MCF-7 (MCF-7): 0.02
IC50 ([2]; read-out: Average IC50): 12600 nM

COc1ccc(NC(=O)Nc2c(C#N)c3n(c2C(=O)Nc2ccc(C)cc2)CCC3)cc1 [Compound 17b, 7-Cyano-6-(3-(4-methoxyphenyl)ureido)-N-(p-tolyl)-2,3-dihydro-1H-pyrrolizine-5-carboxamide]
IC50 (A2780): 420 ± 70 nM
Selectivity index, A2780 (A2780): 14.76
IC50 (HT29): 1440 ± 170 nM
Selectivity index, HT29 (HT29): 4.31
IC50 [1]: 6.2 ± 0.88 µM
IC50 (MCF-7): 2850 ± 310 nM
Selectivity index, MCF-7 (MCF-7): 2.18
IC50 ([2]; read-out: Average IC50): 1570 nM

Cc1ccc(NC(=O)c2c(NC(=O)Nc3ccc(F)cc3)c(C#N)c3n2CCC3)cc1 [Compound 18b, 7-Cyano-6-(3-(4-fluorophenyl)ureido)-N-(p-tolyl)-2,3-dihydro-1H-pyrrolizine-5-carboxamide]
IC50 (A2780): 970 ± 140 nM
Selectivity index, A2780 (A2780): 1.51
IC50 (HT29): 9710 ± 2250 nM
Selectivity index, HT29 (HT29): 0.15
IC50 [1]: 1.46 ± 0.42 µM
apoptotic events (MCF-7 cells [3]): 20%
IC50 (CDK-2): 115 ± 3.2 nM
IC50 (MCF-7): 190 ± 20 nM
Selectivity index, MCF-7 (MCF-7): 7.68
IC50 ([2]; read-out: Average IC50): 3620 nM
effect on cell cycle (MCF-7 cells [4]): G1 -S cell cycle arrest
number of cells in the G1 cell-cycle phase (MCF-7 cells [4]): 53%

CS(=O)(=O)CCNCc1ccc(-c2ccc3ncnc(Nc4ccc(OCc5cccc(F)c5)c(Cl)c4)c3c2)o1 [Lapatinib, lapatinib, reference compound]
IC50 (A2780): 10500 ± 760 nM
Selectivity index, A2780 (A2780): 0.64
IC50 (HT29): 12500 ± 1270 nM
Selectivity index, HT29 (HT29): 0.54
IC50 [1]: 6.74 ± 1.22 µM
IC50 (MCF-7): 6770 ± 1160 nM
Selectivity index, MCF-7 (MCF-7): 1.00
IC50 [2, 5]: 6770 to 12500 nM
IC50 ([2]; read-out: Average IC50): 9920 nM

N#Cc1c(NC(=O)Nc2ccc(F)cc2)c(C(=O)Nc2ccc(Cl)cc2)n2c1CCC2 [Compound 18c, N-(4-Chlorophenyl)-7-cyano-6-(3-(4-fluorophenyl)ureido)-2,3-dihydro-1H-pyrrolizine-5-carboxamide]
IC50 (A2780): 210 ± 100 nM
Selectivity index, A2780 (A2780): 0.48
IC50 (HT29): 1380 ± 20 nM
Selectivity index, HT29 (HT29): 0.07
IC50 [1]: 0.1 ± 0.01 µM
IC50 (MCF-7): 290 ± 190 nM
Selectivity index, MCF-7 (MCF-7): 0.34
IC50 ([2]; read-out: Average IC50): 630 nM

N#Cc1c(NC(=O)Nc2cccc3ccccc23)c(C(=O)Nc2ccc(Cl)cc2)n2c1CCC2 [Compound 19c, N-(4-Chlorophenyl)-7-cyano-6-(3-(naphthalen-1-yl)ureido)-2,3-dihydro-1H-pyrrolizine-5-carboxamide]
IC50 (A2780): 3070 ± 1500 nM
Selectivity index, A2780 (A2780): 0.87
IC50 (HT29): 2560 ± 700 nM
Selectivity index, HT29 (HT29): 1.05
IC50 [1]: 2.68 ± 0.37 µM
IC50 (MCF-7): 1270 ± 10 nM
Selectivity index, MCF-7 (MCF-7): 2.11
IC50 ([2]; read-out: Average IC50): 2300 nM

CCCCCCNC(=O)Nc1c(C#N)c2n(c1C(=O)Nc1ccc(C)cc1)CCC2 [Compound 16b, 7-Cyano-6-(3-hexylureido)-N-(p-tolyl)-2,3-dihydro-1H-pyrrolizine-5-carboxamide]
IC50 (A2780): 230 ± 40 nM
Selectivity index, A2780 (A2780): 11.52
IC50 (HT29): 1560 ± 140 nM
Selectivity index, HT29 (HT29): 1.70
IC50 [1]: 2.65 ± 0.29 µM
IC50 (MCF-7): 1170 ± 310 nM
Selectivity index, MCF-7 (MCF-7): 2.26
IC50 ([2]; read-out: Average IC50): 990 nM

COc1ccc(NC(=O)Nc2c(C#N)c3n(c2C(=O)Nc2ccccc2)CCC3)cc1 [Compound 17a, 7-Cyano-6-(3-(4-methoxyphenyl)ureido)-N-phenyl-2,3-dihydro-1H-pyrrolizine-5-carboxamide]
IC50 (A2780): 440 ± 30 nM
Selectivity index, A2780 (A2780): 5.23
IC50 (HT29): 5290 ± 1510 nM
Selectivity index, HT29 (HT29): 0.43
IC50 [1]: 2.3 ± 0.15 µM
IC50 (MCF-7): 900 ± 110 nM
Selectivity index, MCF-7 (MCF-7): 2.56
IC50 ([2]; read-out: Average IC50): 2210 nM

N#Cc1c(NC(=S)Nc2cccc3ccccc23)c(C(=O)Nc2ccc(Cl)cc2)n2c1CCC2 [Compound 20c, N-(4-chlorophenyl)-7-cyano-6-(3-(naphthalen-1-yl)thioureido)-2,3-dihydro-1H-pyrrolizine-5-carboxamide]
IC50 (A2780): 2810 ± 980 nM
Selectivity index, A2780 (A2780): 1.04
IC50 (HT29): 3670 ± 1650 nM
Selectivity index, HT29 (HT29): 0.80
IC50 [1]: 2.92 ± 0.6 µM
IC50 (MCF-7): 1760 ± 950 nM
Selectivity index, MCF-7 (MCF-7): 1.66
IC50 ([2]; read-out: Average IC50): 2750 nM

COc1ccc(NC(=O)Nc2c(C#N)c3n(c2C(=O)Nc2ccc(Cl)cc2)CCC3)cc1 [Compound 17c, N-(4-Chlorophenyl)-7-cyano-6-(3-(4-methoxyphenyl)ureido)-2,3-dihydro-1H-pyrrolizine-5-carboxamide]
IC50 (A2780): 540 ± 20 nM
Selectivity index, A2780 (A2780): 7.04
IC50 (HT29): 420 ± 160 nM
Selectivity index, HT29 (HT29): 9.05
IC50 [1]: 3.8 ± 0.25 µM
IC50 (MCF-7): 3360 ± 830 nM
Selectivity index, MCF-7 (MCF-7): 1.13
IC50 ([2]; read-out: Average IC50): 1440 nM

N#Cc1c(NC(=O)Nc2cccc3ccccc23)c(C(=O)Nc2ccccc2)n2c1CCC2 [Compound 19a, 7-Cyano-6-(3-(naphthalen-1-yl)ureido)-N-phenyl-2,3-dihydro-1H-pyrrolizine-5-carboxamide]
IC50 (A2780): 320 ± 170 nM
Selectivity index, A2780 (A2780): 8.34
IC50 (HT29): 200 ± 10 nM
Selectivity index, HT29 (HT29): 13.35
IC50 [1]: 2.67 ± 0.37 µM
IC50 (CDK-2): 25.5 ± 1.7 nM
IC50 (MCF-7): 400 ± 420 nM
Selectivity index, MCF-7 (MCF-7): 6.68
IC50 ([2]; read-out: Average IC50): 310 nM
effect on cell cycle (MCF-7 cells [4]): G1 -S cell cycle arrest
number of cells in the G1 cell-cycle phase (MCF-7 cells [4]): 70%
